Key:
[1] = Pharmacokinetics of total topotecan in plasma, tumor and BM-ISF of ES-2 tumor bearing mice; format: in vivo, BALB/c nude mice; settings: single i.v. 2 mg/kg
Protocol: (§1) Sucrose/histidine buffer and saline (Otsuka Pharmaceutical Factory, Tokushima, Japan) were used as the diluent for FF-10850 and TPT, respectively. After blood sample collection, mice were euthanized at the corresponding time points, and tumor and bone marrow tissues were collected. Plasma was obtained by centrifuging the blood samples at 800 × g for 15 min at 4 °C. Tumor tissues, placed on ice, were minced into fine pieces with scissors. Bone marrow tissues were harvested from the femur and tibia. After cutting the ends, the bones were placed in a microtube and centrifuged at 1,200 × g for 1 min at 4 °C. Unencapsulated topotecan was immediately separated from the plasma and tissue samples and processed.
(§2) To prepare the samples, methanol with 0.1% formic acid plus topotecan-d6 was added to plasma samples, while methanol with 0.1% formic acid was used for tumor and BM-ISF samples. The samples were thoroughly mixed and centrifuged at 11,300 × g for 3 min. The supernatants were added to an equal volume of water with 0.1% formic acid, and the mixture was injected into the liquid chromatographic–triple quadrupole mass spectrometric (LC–MS/MS) system. The ultra-performance liquid chromatography (UPLC) conditions for topotecan analysis were as follows: system, ACQUITY UPLC (Waters, Milford, MA); column, ACQUITY UPLC BEH C18 Column (1.7 µm, 2.1 mm × 50 mm, Waters); mobile phase A, 0.1% formic acid; mobile phase B, methanol with 0.1% formic acid, gradient (initial to 2.0 min, linear increase from 20 to 50% of B; 2.0 to 3.0 min, 95% B, and 3.0 to 4.0 min, 20% B); flow rate, 0.4 mL/min; column temperature, 40 °C. A Triple Quad 5500 (AB Sciex, Framingham, MA) mass spectrometer equipped with Analyst software (AB Sciex) and positive ion electrospray ionization in a multiple reaction monitoring (MRM) mode were used. Quantification was performed using MRM with the transitions of m/z at 422.0 → 377.1 for topotecan and 428.1 → 377.1 for topotecan-d6.
(§3) Pharmacokinetic parameters, including half-life (T1/2), initial concentration at t = 0 (C0), the area under the concentration versus time curves from 0 to infinity (AUCinf), clearance (CL), mean residence time (MRT), and the volume of distribution (Vd) of total and unencapsulated topotecan in plasma, tumor tissue, and BM-ISF were analyzed using noncompartmental analysis with Phoenix WinNonlin version 8.2 pharmacokinetic software (Certara, Princeton, NJ). The AUCs were calculated using the linear up/log down rule.

[2] = Maximum tolerated dose of TPT in mice; settings: mouse, in vivo, intravenous, 5 consecutive days, authors' previous study (data not shown)
[3] = Pharmacokinetics of unencapsulated topotecan in plasma, tumor and BM-ISF of ES-2 tumor bearing mice; format: in vivo, BALB/c nude mice; settings: for AUC(0-inf) / Cmax / MRT / half-life: BALB/c nude, mouse, iv
Protocol: as §1
For the separation of unencapsulated topotecan in plasma, plasma samples diluted with PBS were ultracentrifuged at 200,000 × g for 1 h at 4 °C to precipitate the liposomes. The supernatants were collected as samples for measuring unencapsulated topotecan in plasma. To separate unencapsulated topotecan in tumor tissues, the tissues were minced as described and homogenized in PBS containing topotecan-d6 as an internal standard (125 mg tissue/mL PBS), with zirconia balls using Micro Smash MS-100R (Tomy Seiko, Tokyo, Japan). The homogenate was then ultracentrifuged at 200,000 × g for 1 h at 4 °C, and the supernatants were collected as samples for measuring unencapsulated topotecan in the tumor tissue. For the separation of unencapsulated topotecan in BM-ISF, a bone marrow tissue suspension was prepared by adding PBS containing topoteacan-d6 to the tissue (25 mg tissue/mL PBS) and suspending it by pipetting. After removing cellular components from the suspension by centrifugation at 1,200 × g for 3 min at 4 °C, the supernatant was collected as the BM-ISF sample. These samples were ultracentrifuged at 200,000 × g for 1 h at 4 °C, and the supernatants were collected to measure unencapsulated topotecan in the BM-ISF.
as §2, §3

[4] = tested on: Ser139-phosphorylated human H2AX (γhH2AX) in the tumor; assay: DNA damage in tumor (γH2AX) of ES-2 tumor-bearing mice; format: in vivo; settings: TPT 2 mg/kg/day for 5 consecutive days
Protocol: Mice in the TPT group were euthanized at 3 and 24 h after each dosing and 3, 5, and 7 days after the last dosing (n = 3). Samples were also harvested at 0.5 h after the first and last TPT dose (n = 3). Mice in the vehicle control group were administered sucrose/histidine buffer intravenously and were euthanized at 3 h, 3, 7, and 11 days post-dosing (n = 2 or 3). The levels of Ser139-phosphorylated human H2AX (γhH2AX) and total hH2AX in the tumor, as well as Ser139-phosphorylated mouse H2AX (γmH2AX) and total mH2AX in mouse bone marrow, were quantified using a previously established method.

[5] = BALB/c nude, mouse, BM-ISF (bone marrow interstitial fluid), iv, BM-ISF, ES-2 tumor bearing mice
[6] = BALB/c nude, mouse, iv, plasma, ES-2 tumor bearing mice
[7] = BALB/c nude, mouse, iv, tumor, ES-2 tumor bearing mice
[8] = unencapsulated topotecan, BM-ISF, single i.v. 2 mg/kg, ES-2 tumor bearing mice
[9] = unencapsulated topotecan, plasma, single i.v. 2 mg/kg, ES-2 tumor bearing mice
[10] = unencapsulated topotecan, tumor, single i.v. 2 mg/kg, ES-2 tumor bearing mice

For `CC[C@@]1(O)C(=O)OCc2c1cc1n(c2=O)Cc2cc3c(CN(C)C)c(O)ccc3nc2-1` [TPT, Topotecan], the AUC(0-inf) [1, 5] was 862 ng·h/mL, the Cmax [1, 5] was 1710 ng/mL and the MRT [1, 5] was 39.5 min. The half-life ([1]; BALB/c nude, mouse, iv, BM-ISF (bone marrow interstitial fluid), ES-2 tumor bearing mice) was 41.4 min, the AUC(0-inf) [1, 6] was 140 ng·h/mL and the C0 [1, 6] was 406 ng/mL. For the same molecule, the MRT [1, 6] was 23.3 min, the Vd [1, 6] was 5.87 L/kg and the clearance [1, 6] was 238 mL/min/kg. It also gave a half-life [1, 6] of 23.9 min, a Cmax [1, 7] of 546 ng/g and an MRT [1, 7] of 61.2 min. For the same molecule, the half-life [1, 7] was 55.7 min, the “AUCinf in BM-ISF relative to that in plasma” value [1] was 6 times and the “AUCinf ratio (Tumor/BM-ISF)” value ([1]; ES-2 tumor bearing mice) was 0.675. The AUCinf ([1]; tumor, ES-2 tumor bearing mice) was 582 ng∙h/g tissue, the MTD at 5 days [2] was 2 mg/kg/day and the AUC(0-inf) [3, 8] was 822 ng·h/mL. It also gave a Cmax [3, 8] of 1700 ng/mL, an MRT [3, 8] of 36.4 min and a half-life [3, 8] of 43.7 min. It also gave an AUC(0-inf) [3, 9] of 97.3 ng·h/mL, a Cmax [3, 9] of 198 ng/mL and an MRT [3, 9] of 34.6 min. For the same molecule, the half-life [3, 9] was 26.3 min, the Cmax [3, 10] was 646 ng/g and the MRT [3, 10] was 62.4 min. The half-life [3, 10] was 58.3 min, the “difference between total and unencapsulated topotecan AUCs” value ([3]; in plasma and each tissue) was ≤ 1.5 fold and the “AUCinf ratio (Tumor/BM-ISF)” value ([3]; unencapsulated topotecan, single i.v. 2 mg/kg, ES-2 tumor bearing mice) was 0.833. The AUCinf [3, 10] was 684 ng∙h/g tissue, the “human γH2AX levels in the tumor (DNA damage)” value ([4]; FF-10850 single i.v. 2 mg/kg) was “comparable DNA damage” and the “time γH2AX levels remained elevated in tumor after each dose” value [4] was “at least 24 h”.

Source: paper PMC11024016 (Pharmaceutical Research, 2024)
